Assay results taken from patent US20100022521A1, “COMPOUNDS” (Hansa Metallwerke AG, priority 2005, published 2010).

Assays:
[1] = biological target: T1, rat mGluR1 (Rattus norvegicus, UniProt P23385); assay: MGluR1 receptor binding test ([3H]R214127 displacement); conditions: rat cerebellar membrane; radioligand [3H]R214127 (3 nM); read-out: mGlu1 Ki
T1 construct: rat cerebellar membrane preparation was used; from tissue; host or cells: rat cerebellum (membrane preparation)
Method: MGluR1 Receptor Binding Test
MGluR1 receptor binding testes were performed according to modified method of Lavreysen et al. (Mol. Pharm., 2003, 63, 1082). Based on the high homology between the human and rat mGluR1 receptors, rat cerebellar membrane preparation was used to determine the binding characteristics of reference compounds and novel compounds to the rat mGluR1. As radioligand [3H]R214127 (3 nM) was used and the nonspecific binding was determined in the presence of 1 μM of R214127.
IC-50 values were determined from displacement curves by nonlinear regression analysis and were converted by equation method of Cheng and Prusoff (Biochem. Pharmacol., 1973, 22, 3099) to Ki values.

[2] = biological target: mGluR5 (UniProt P31424); assay: MGluR5 receptor binding test ([3H]-M-MPEP displacement); parameters: species or system rat; conditions: radioligand [3H]-M-MPEP (2 nM); species not given; read-out: mGlu5 Ki
Method: MGluR5 Receptor Binding Tests
Rat cerebro-cortical membrane preparation was used to determine the binding characteristics of reference compounds and novel compounds to the rat mGluR5. The A18 cell line expressing hmGluR5a (purchased from Euroscreen) was used to determine binding characteristics of the chemical compounds to the human mGluR5a receptor. As radioligand [3H]-M-MPEP (2 nM) was used. The nonspecific binding was determined in the presence of 10 μM M-MPEP.

T1 sequence (P23385 19-1199): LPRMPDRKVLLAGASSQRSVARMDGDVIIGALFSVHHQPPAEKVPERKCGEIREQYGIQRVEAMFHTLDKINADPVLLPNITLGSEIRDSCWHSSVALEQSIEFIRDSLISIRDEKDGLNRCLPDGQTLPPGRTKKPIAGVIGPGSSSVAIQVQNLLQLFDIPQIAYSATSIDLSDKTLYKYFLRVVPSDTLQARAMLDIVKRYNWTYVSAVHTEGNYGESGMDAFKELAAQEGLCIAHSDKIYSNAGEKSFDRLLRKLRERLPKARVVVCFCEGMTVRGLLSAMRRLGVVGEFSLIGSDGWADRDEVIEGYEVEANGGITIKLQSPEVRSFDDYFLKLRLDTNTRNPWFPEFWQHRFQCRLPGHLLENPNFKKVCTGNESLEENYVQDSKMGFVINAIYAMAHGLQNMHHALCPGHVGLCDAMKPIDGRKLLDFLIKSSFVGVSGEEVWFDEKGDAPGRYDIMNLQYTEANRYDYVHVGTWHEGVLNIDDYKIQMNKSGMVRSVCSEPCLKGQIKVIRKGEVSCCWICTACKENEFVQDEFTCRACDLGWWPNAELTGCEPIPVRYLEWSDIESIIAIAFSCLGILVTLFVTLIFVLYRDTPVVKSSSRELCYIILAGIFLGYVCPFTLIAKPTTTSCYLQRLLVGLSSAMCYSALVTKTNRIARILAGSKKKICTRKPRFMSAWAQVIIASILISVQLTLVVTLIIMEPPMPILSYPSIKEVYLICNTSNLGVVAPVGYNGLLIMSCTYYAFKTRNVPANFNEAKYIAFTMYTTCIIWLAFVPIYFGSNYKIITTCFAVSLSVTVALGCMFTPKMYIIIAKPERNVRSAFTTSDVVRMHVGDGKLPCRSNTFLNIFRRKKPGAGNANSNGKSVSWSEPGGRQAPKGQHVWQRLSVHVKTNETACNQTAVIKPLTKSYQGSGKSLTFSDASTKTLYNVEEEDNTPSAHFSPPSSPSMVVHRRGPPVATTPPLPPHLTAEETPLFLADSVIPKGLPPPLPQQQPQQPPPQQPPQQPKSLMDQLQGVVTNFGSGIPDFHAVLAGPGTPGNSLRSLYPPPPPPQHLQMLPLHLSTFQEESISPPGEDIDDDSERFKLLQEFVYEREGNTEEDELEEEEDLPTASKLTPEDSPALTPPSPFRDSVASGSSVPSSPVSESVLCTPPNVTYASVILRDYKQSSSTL

Row | Structure (SMILES) | Ki [1] | Ki [2]
1 | O=S(=O)(c1cccs1)c1sc2ncccc2c1-c1ccc(Cl)cc1 [Compound 13] | > 1500 nM | 500 to 1500 nM
2 | Cc1noc(C)c1S(=O)(=O)c1sc2ncccc2c1-c1ccc(Cl)cc1 [Compound 14] | > 1500 nM | > 1500 nM
3 | O=S(=O)(Nc1ccc(Cl)cc1)c1sc2ncccc2c1-c1ccc(Cl)cc1 [Compound 15, 3-(4-Chlorophenyl)-thieno[2,3-b]pyridine-2-sulfonic acid (4-chloro-phenyl)-amide] | > 1500 nM | 500 to 1500 nM
4 | O=S(=O)(c1sc2ncccc2c1-c1ccc(Cl)cc1)C1CCCCC1 [Compound 16] | > 1500 nM | > 1500 nM
5 | O=S(=O)(Cc1ccccc1)c1sc2ncccc2c1-c1ccc(Cl)cc1 [Compound 17] | > 1500 nM | 500 to 1500 nM
6 | O=S(=O)(c1ccc(-c2ccccc2)cc1)c1sc2ncccc2c1-c1ccc(Cl)cc1 [Compound 18] | > 1500 nM | > 1500 nM
7 | O=S(=O)(c1cccc(Cl)c1)c1sc2ncccc2c1-c1ccc(Cl)cc1 [Compound 19] | > 1500 nM | < 500 nM
8 | O=S(=O)(NCc1ccc(Cl)cc1)c1sc2ncccc2c1-c1ccc(Cl)cc1 [Compound 21, 3-(4-Chlorophenyl)-thieno[2,3-b]pyridine-2-sulfonic acid 4-chloro-benzylamide] | > 1500 nM | > 1500 nM
9 | O=S(=O)(c1cccc(C(F)(F)F)c1)c1sc2ncccc2c1-c1ccc(Cl)cc1 [Compound 28] | > 1500 nM | < 500 nM
10 | O=S(=O)(c1ccc(Cl)cc1Cl)c1sc2ncccc2c1-c1ccc(Cl)cc1 [Compound 33] | > 1500 nM | 500 to 1500 nM
11 | Cc1ccc(-c2c(S(=O)(=O)c3ccc(Cl)cc3)sc3ncccc23)cc1 [Compound 35] | > 1500 nM | < 500 nM
12 | CC1CCN(c2c(S(=O)(=O)c3cccc(C#N)c3)sc3ncccc23)CC1 [Compound 36, 2-(3-Cyano-benzenesulfonyl)-3-(4-methyl-piperidinyl)-thieno[2,3-b]pyridine] | < 500 nM | < 500 nM
13 | N#Cc1cccc(S(=O)(=O)c2sc3ncccc3c2-c2cccc(Cl)c2)c1 [Compound 38] | < 500 nM | < 500 nM
14 | N#Cc1cc(F)cc(S(=O)(=O)c2sc3ncccc3c2-c2ccc(Cl)cc2)c1 [Compound 40] | 500 to 1500 nM | < 500 nM
15 | COc1ccc(S(=O)(=O)c2sc3ncccc3c2-c2ccc(Cl)cc2)cc1 [Compound 48] | < 500 nM | < 500 nM
16 | N#Cc1cccc(S(=O)(=O)c2sc3ncccc3c2-c2cccc(F)c2)c1 [Compound 52] | < 500 nM | < 500 nM
17 | Cc1cccc(-c2c(S(=O)(=O)c3cccc(C#N)c3)sc3ncccc23)c1 [Compound 53] | 500 to 1500 nM | < 500 nM
18 | Cc1ccc(-c2c(S(=O)(=O)c3cccc(C#N)c3)sc3ncccc23)cc1 [Compound 59] | < 500 nM | < 500 nM
19 | COc1cccc(-c2c(S(=O)(=O)c3cccc(C#N)c3)sc3ncccc23)c1 [Compound 67] | < 500 nM | < 500 nM
20 | N#Cc1cccc(S(=O)(=O)c2sc3nc(F)ccc3c2-c2ccc(F)cc2)c1 [Compound 75] | > 1500 nM | < 500 nM
21 | O=S(=O)(c1cccc(F)c1)c1sc2ncccc2c1-c1ccc(F)cc1 [Compound 78] | > 1500 nM | < 500 nM
22 | Nc1cnc2sc(S(=O)(=O)c3ccc(Cl)cc3)c(-c3ccc(Cl)cc3)c2c1 [Compound 79, 2-(4-Chloro-benzenesulfonyl)-3-(4-chloro-phenyl)-thieno[2,3-b]pyridin-5-ylamine] | < 500 nM | < 500 nM
23 | O=S(=O)(c1ccc(Cl)c(Cl)c1)c1sc2ncccc2c1-c1ccc(Cl)cc1 [Compound 80] | 500 to 1500 nM | < 500 nM
24 | Cc1ccc(S(=O)(=O)c2sc3ncccc3c2-c2ccc(F)cc2)cc1F [Compound 82] | > 1500 nM | < 500 nM
25 | N#Cc1cccc(S(=O)(=O)c2sc3ncccc3c2-c2ccccc2Cl)c1 [Compound 83] | < 500 nM | < 500 nM
26 | Cc1ccc(S(=O)(=O)c2sc3nc(F)ccc3c2-c2ccc(Cl)cc2)cc1F [Compound 89] | > 1500 nM | < 500 nM
27 | N#Cc1cc(F)cc(S(=O)(=O)c2sc3nc(F)ccc3c2-c2ccc(Cl)cc2)c1 [Compound 90, 2-(3-Cyano-5-fluoro-benzenesulfonyl)-3-(4-chloro-phenyl)-6-fluoro-thieno[2,3-b]pyridine] | > 1500 nM | < 500 nM
28 | COc1ccc(S(=O)(=O)c2sc3ncccc3c2-c2ccc(Cl)cc2)cc1F [Compound 91] | 500 to 1500 nM | < 500 nM
